Reference: article PMC5451006, “Inhibition of insect olfactory behavior by an airborne antagonist of the insect odorant receptor co-receptor subunit” (PLoS ONE, 2017)

What was measured:
Assay type in all cases: cell-based
Dmel\Orco+Dmel\Or35a = target: T1, Dmel\Orco+Dmel\Or35a (Drosophila melanogaster, UniProt Q9VNB5); experiment: two-electrode voltage clamp, Xenopus oocytes, concentration-inhibition
T1 construct: heteromeric OR, cRNAs co-expressed in Xenopus laevis oocytes; stoichiometry unknown; with Odorant receptor 35a
T1 sequence (Q9VNB5 1-486): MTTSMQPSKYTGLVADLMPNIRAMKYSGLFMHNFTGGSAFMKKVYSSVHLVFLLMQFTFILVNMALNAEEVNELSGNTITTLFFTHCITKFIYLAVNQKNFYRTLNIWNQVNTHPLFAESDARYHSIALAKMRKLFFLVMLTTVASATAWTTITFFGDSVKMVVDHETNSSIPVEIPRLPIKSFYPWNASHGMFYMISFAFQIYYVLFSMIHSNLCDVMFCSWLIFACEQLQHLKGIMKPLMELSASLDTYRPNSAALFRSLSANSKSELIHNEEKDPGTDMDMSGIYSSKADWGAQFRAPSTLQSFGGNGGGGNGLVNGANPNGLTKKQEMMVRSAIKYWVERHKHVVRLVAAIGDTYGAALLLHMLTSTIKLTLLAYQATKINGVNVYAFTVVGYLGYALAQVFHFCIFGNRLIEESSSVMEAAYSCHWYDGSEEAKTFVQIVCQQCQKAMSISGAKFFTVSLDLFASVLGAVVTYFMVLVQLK
T1 sequence (Q9V3Q2 1-409 partner): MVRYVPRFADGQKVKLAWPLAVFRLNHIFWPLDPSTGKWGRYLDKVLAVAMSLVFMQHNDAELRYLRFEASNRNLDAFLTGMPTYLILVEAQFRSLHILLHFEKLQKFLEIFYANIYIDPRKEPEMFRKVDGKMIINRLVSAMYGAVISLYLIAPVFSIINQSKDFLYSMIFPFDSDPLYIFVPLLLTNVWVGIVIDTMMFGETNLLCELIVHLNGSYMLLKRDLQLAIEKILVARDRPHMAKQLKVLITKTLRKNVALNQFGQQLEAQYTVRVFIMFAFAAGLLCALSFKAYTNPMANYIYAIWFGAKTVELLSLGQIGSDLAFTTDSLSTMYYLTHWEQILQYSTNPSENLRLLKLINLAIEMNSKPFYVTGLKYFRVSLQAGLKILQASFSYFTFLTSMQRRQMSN

Cqui\Orco+Cqui\Or21 = target: T2, Cqui\Orco+Cqui\Or21 (Culex quinquefasciatus, UniProt Z9TAD8G4U6); experiment: as above; settings: antagonist vs 3 μM OLC12 (Orco agonist), -70 mV, pH 7.4, 90 sec pre-application
T2 construct: heteromeric OR, cRNAs from pGEMHE co-expressed in Xenopus laevis oocytes; stoichiometry unknown; with Odorant receptor 21
T2 sequence (Z9TAD8G4U6 1-480): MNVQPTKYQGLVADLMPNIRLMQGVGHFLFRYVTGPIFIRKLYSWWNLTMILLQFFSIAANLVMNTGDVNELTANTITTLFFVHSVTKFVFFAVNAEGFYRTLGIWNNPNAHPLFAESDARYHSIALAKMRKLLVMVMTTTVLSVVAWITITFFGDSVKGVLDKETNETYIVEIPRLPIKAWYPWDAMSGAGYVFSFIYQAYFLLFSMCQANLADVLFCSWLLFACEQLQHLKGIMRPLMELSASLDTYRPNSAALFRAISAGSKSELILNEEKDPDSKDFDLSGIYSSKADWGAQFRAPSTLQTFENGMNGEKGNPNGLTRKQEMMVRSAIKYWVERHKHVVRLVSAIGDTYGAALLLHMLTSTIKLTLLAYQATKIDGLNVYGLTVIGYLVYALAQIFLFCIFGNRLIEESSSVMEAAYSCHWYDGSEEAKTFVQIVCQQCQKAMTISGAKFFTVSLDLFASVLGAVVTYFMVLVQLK

Agam\Orco+Agam\Or39 = target: T3, Agam\Orco+Agam\Or39 (Anopheles gambiae, UniProt Q7QCC7); experiment: two-electrode voltage clamp, Xenopus oocytes, single concentration; settings: antagonist vs 10 μM 6-methyl-5-hepten-2-one (EC50 concentration); allosteric via Orco; pH 7.4, -70 mV
T3 construct: heteromeric OR co-expressed in Xenopus laevis oocytes; stoichiometry unknown; with Odorant receptor 39
T3 sequence (Q7QCC7 1-478): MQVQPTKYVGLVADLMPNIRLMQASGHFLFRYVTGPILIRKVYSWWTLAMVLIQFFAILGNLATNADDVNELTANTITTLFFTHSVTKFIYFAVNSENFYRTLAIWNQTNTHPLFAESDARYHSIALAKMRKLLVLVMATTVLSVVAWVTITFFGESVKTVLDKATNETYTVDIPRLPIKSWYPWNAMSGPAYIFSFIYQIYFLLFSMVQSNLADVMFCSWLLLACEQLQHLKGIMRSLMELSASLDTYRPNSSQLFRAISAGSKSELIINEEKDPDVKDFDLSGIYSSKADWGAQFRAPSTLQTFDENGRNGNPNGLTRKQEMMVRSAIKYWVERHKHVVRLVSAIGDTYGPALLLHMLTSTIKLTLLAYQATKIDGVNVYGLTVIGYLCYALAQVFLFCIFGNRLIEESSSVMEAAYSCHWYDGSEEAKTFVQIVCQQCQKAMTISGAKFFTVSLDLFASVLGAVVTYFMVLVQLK

Agam\Orco+Agam\Or65 = target: T4, Agam\Orco+Agam\Or65 (Anopheles gambiae, UniProt Q7QCC7); experiment: as above; settings: antagonist vs 100 nM eugenol (EC50 concentration); allosteric via Orco; pH 7.4, -70 mV
T4 construct: heteromeric OR co-expressed in Xenopus laevis oocytes; stoichiometry unknown; with Odorant receptor 65
T4 sequence (Q7QCC7 1-478): T3 sequence (Q7QCC7 1-478)

Agam\Orco+Agam\Or31 = target: T5, Agam\Orco+Agam\Or31 (Anopheles gambiae, UniProt Q7QCC7); experiment: as above; settings: antagonist vs 70 μM geranyl acetate (EC50 concentration); allosteric via Orco; pH 7.4, -70 mV
T5 construct: heteromeric OR co-expressed in Xenopus laevis oocytes; stoichiometry unknown; with Odorant receptor 31
T5 sequence (Q7QCC7 1-478): T3 sequence (Q7QCC7 1-478)

Cqui\Orco = target: T6, Cqui\Orco (Culex quinquefasciatus, UniProt Z9TAD8G4U6); experiment: as above; settings: antagonist vs 30 μM OLC12; homomeric Orco; pH 7.4, -70 mV
T6 construct: homomeric Orco channel, expressed alone in Xenopus laevis oocytes
T6 sequence (Z9TAD8G4U6 1-480): T2 sequence (Z9TAD8G4U6 1-480)
Source text: two-electrode voltage clamp, Xenopus oocytes, single concentration on Cqui\Orco | OX1w inhibition of homomeric Orco channels. Oocytes expressing Dmel\Orco, Cqui\Orco or Agam\Orco

Agam\Orco = target: T7, Agam\Orco (Anopheles gambiae, UniProt Q7QCC7); experiment: as above; settings: antagonist vs 30 μM OLC12; homomeric Orco; pH 7.4, -70 mV
T7 construct: homomeric Orco channel, expressed alone in Xenopus laevis oocytes
T7 sequence (Q7QCC7 1-478): T3 sequence (Q7QCC7 1-478)
Source text: two-electrode voltage clamp, Xenopus oocytes, single concentration on Agam\Orco | OX1w inhibition of homomeric Orco channels. Oocytes expressing Dmel\Orco, Cqui\Orco or Agam\Orco

Dmel\Orco = target: T8, Dmel\Orco (Drosophila melanogaster, UniProt Q9VNB5); experiment: as above; settings: antagonist vs 30 μM OLC12; homomeric Orco; pH 7.4, -70 mV
T8 construct: homomeric Orco channel, expressed alone in Xenopus laevis oocytes
T8 sequence (Q9VNB5 1-486): T1 sequence (Q9VNB5 1-486)
Source text: two-electrode voltage clamp, Xenopus oocytes, single concentration on Dmel\Orco | OX1w inhibition of homomeric Orco channels. Oocytes expressing Dmel\Orco, Cqui\Orco or Agam\Orco

Agam\Orco+Agam\Or28 = target: T9, Agam\Orco+Agam\Or28 (Anopheles gambiae, UniProt Q7QCC7); experiment: as above; settings: antagonist vs 40 μM acetophenone (EC50 concentration); allosteric via Orco; pH 7.4, -70 mV
T9 construct: heteromeric OR co-expressed in Xenopus laevis oocytes; stoichiometry unknown; with Odorant receptor 28
T9 sequence (Q7QCC7 1-478): T3 sequence (Q7QCC7 1-478)

Agam\Orco+Agam\Or15 = target: T10, Agam\Orco+Agam\Or15 (Anopheles gambiae, UniProt Q7QCC7); experiment: as above; settings: antagonist vs 18 μM acetophenone (EC50 concentration); allosteric via Orco; pH 7.4, -70 mV
T10 construct: heteromeric OR co-expressed in Xenopus laevis oocytes; stoichiometry unknown; with Odorant receptor 15
T10 sequence (Q7QCC7 1-478): T3 sequence (Q7QCC7 1-478)

Agam\Orco+Agam\Or27 = target: T11, Agam\Orco+Agam\Or27 (Anopheles gambiae, UniProt Q7QCC7); experiment: as above; settings: antagonist vs 3 μM L-fenchone (EC50 concentration); allosteric via Orco; pH 7.4, -70 mV
T11 construct: heteromeric OR co-expressed in Xenopus laevis oocytes; stoichiometry unknown; with Odorant receptor 27
T11 sequence (Q7QCC7 1-478): T3 sequence (Q7QCC7 1-478)

Row | SMILES | IC50 (Dmel\Orco+Dmel\Or35a) [µM] | IC50 (Cqui\Orco+Cqui\Or21) [µM] | % response remaining at 100 μM (normalized to sham) (Agam\Orco+Agam\Or39) | % response remaining at 100 μM (normalized to sham) (Agam\Orco+Agam\Or65) [%] | % response remaining at 100 μM (normalized to sham) (Agam\Orco+Agam\Or31) | % response remaining at 100 μM (Cqui\Orco) | % response remaining at 100 μM (Agam\Orco) | % response remaining at 100 μM (Dmel\Orco) | % response remaining at 100 μM (normalized to sham) (Agam\Orco+Agam\Or28) [%] | % response remaining at 100 μM (normalized to sham) (Agam\Orco+Agam\Or15) | % response remaining at 100 μM (normalized to sham) (Agam\Orco+Agam\Or27)
1 | O=C(Nc1cc(F)cc(F)c1)c1cccs1 [OX1v, N-(3,5-difluorophenyl)-2-thiophenecarboxamide] | 32 ± 4 | 20 ± 3 | – | – | – | – | – | – | – | – | –
2 | O=C(Nc1ccc(F)cc1)c1sccc1Cl [OX1w, 3-chloro-N-(4-fluorophenyl)-2-thiophenecarboxamide] | 57 ± 5 | 4 ± 1 | OX1w was able to inhibit odorant activation of each of the tested ORs | 78 ± 5 | OX1w was able to inhibit odorant activation of each of the tested ORs | OX1w inhibition of homomeric Orco channels. Oocytes expressing Dmel\Orco, Cqui\Orco or Agam\Orco | OX1w inhibition of homomeric Orco channels. Oocytes expressing Dmel\Orco, Cqui\Orco or Agam\Orco | OX1w inhibition of homomeric Orco channels. Oocytes expressing Dmel\Orco, Cqui\Orco or Agam\Orco | 8 ± 1 | OX1w was able to inhibit odorant activation of each of the tested ORs | OX1w was able to inhibit odorant activation of each of the tested ORs
3 | O=C(Nc1ccc(SC(F)F)cc1)c1cccs1 [OX1x, N-(4-((difluoromethyl)thio)phenyl)-2-thiophenecarboxamide] | 32 ± 6 | 15 ± 1 | – | – | – | – | – | – | – | – | –
